From ChEMBL document CHEMBL4340541, “Synthesis of andrographolide analogues and their neuroprotection and neurite outgrowth-promoting activities” (Bioorg Med Chem, 2019)
The source made the active and inactive calls. No cut-off for these calls is given here.

Tests used:
BV-2 [1] = assay: Antiinflammatory activity in mouse BV2 cells assessed as reduction in LPS-induced NO production at 20 uM incubated for 24 hrs by Griess method; assay type: functional; conditions: for inhibition at 20 µM: BV-2, 24 h
[2] = Lipophilicity, log P of the compound; assay type: physicochemical; conditions: octanol/water
BV-2 [3] = assay: Antiinflammatory activity in mouse BV2 cells assessed as reduction in LPS-induced NO production incubated for 24 hrs by Griess method; assay type: functional, cell-based
BV-2 [4] = assay: Antiinflammatory activity in LPS-induced mouse BV2 cells assessed as reduction in iNOS mRNA expression at 20 uM incubated for 24 hrs by RT-PCR analysis method; assay type: functional, cell-based
BV-2 [5] = assay: Antiinflammatory activity in LPS induced mouse BV2 cells assessed as reduction in iNOS expression at 20 uM incubated for 24 hrs by DAPI based fluorescence microscopic method; assay type: functional, cell-based
BV-2 [6] = assay: Antiinflammatory activity in LPS induced mouse BV2 cells assessed as reduction in TNFalpha incubated for 6 hrs by ELISA method; assay type: functional, cell-based
BV-2 [7] = assay: Antiinflammatory activity in LPS induced mouse BV2 cells assessed as reduction in IL-6 incubated for 24 hrs by ELISA method; assay type: functional, cell-based
PC-12 [8] = assay: Neuroprotective activity against H2O2-induced toxicity in rat PC12 cells assessed as increase in cell viability at 20 uM pretreated for 24 hrs followed by H2O2 challenge and measured after 24 hrs by MTT assay; assay type: functional, cell-based
PC-12 [9] = assay: Neuroprotective activity against 6-OHDA -induced toxicity in rat PC12 cells assessed as increase in cell viability at 20 uM pretreated for 24 hrs followed by 6-OHDA challenge and measured after 24 hrs by MTT assay; assay type: functional, cell-based
PC-12 [10] = assay: Induction of neurite outgrowth in NGF-induced rat PC12 cells assessed as neurite bearing cells at 5 to 10 uM cotreated with 20 ng/ml NGF incubated for 48 hrs by light microscopy; assay type: functional, cell-based
BV-2 [11] = assay: Cytotoxicity in mouse BV2 cells assessed as reduction in cell viability; assay type: cell-based
BV-2 [12] = assay: Antiinflammatory activity in mouse BV2 cells assessed as reduction in LPS-induced NO production at 1 uM incubated for 24 hrs by Griess method relative to control; assay type: functional; conditions: BV-2, 24 h
BV-2 [13] = assay: Neuroprotective activity against microglia-conditioned medium-induced cytotoxicity in rat PC12 cells exposed to conditioned medium derived from 24 hrs compound pre-treated mouse BV2 cells assessed as increase in cell viability at 5 to 20 uM by MTT assay; assay type: functional, cell-based
BV-2 [14] = assay: Neuroprotective activity against microglia-conditioned medium-induced cytotoxicity in rat PC12 cells exposed to conditioned medium derived from mouse BV2 cells assessed as increase in cell viability at 5 to 20 uM by MTT assay; assay type: functional, cell-based
BV-2 [15] = assay: Neuroprotective activity against microglia-conditioned medium-induced cytotoxicity in rat PC12 cells co-cultred with mouse BV2 cells assessed as increase in cell viability at 5 to 20 uM incubated for 4 hrs by MTT assay; assay type: functional, cell-based
PC-12 [16] = assay: Cytotoxicity against rat PC12 cells assessed as reduction in cell viability incubated for 48 hrs; assay type: cell-based; conditions: pc-12, 48 h
PC-12 [17] = assay: Induction of neurite outgrowth in NGF-induced rat PC12 cells assessed as neurite bearing cells at 20 uM cotreated with 20 ng/ml NGF incubated for 48 hrs by light microscopy; assay type: functional
PC-12 [18] = assay: Induction of neurite outgrowth in NGF-induced rat PC12 cells assessed as neurite bearing cells cotreated with 20 ng/ml NGF incubated for 48 hrs by light microscopy; assay type: functional, cell-based
PC-12 [19] = assay: Induction of neurite outgrowth in rat PC12 cells assessed as neurite bearing cells in absence of 20 ng/ml NGF incubated for 48 hrs by light microscopy; assay type: functional, cell-based
PC-12 [20] = assay: Induction of neurite outgrowth in NGF-induced rat PC12 cells assessed as neurite bearing cells at 20 uM cotreated with 20 ng/ml NGF incubated for 48 hrs by methylene blue staining based light microscopy; assay type: functional
PC-12 [21] = assay: Neuroprotective activity against 6-OHDA -induced toxicity in rat PC12 cells assessed as increase in cell viability at 10 uM pretreated for 24 hrs followed by 6-OHDA challenge and measured after 24 hrs by MTT assay; assay type: functional, cell-based
PC-12 [22] = assay: Neuroprotective activity against H2O2-induced toxicity in rat PC12 cells assessed as increase in cell viability at 10 uM pretreated for 24 hrs followed by H2O2 challenge and measured after 24 hrs by MTT assay; assay type: functional, cell-based

Row | logP ([2]; read-out: logP) | Compound | Activity (PC-12 [8]) | Activity (PC-12 [9]) | Activity (BV-2 [11]) | inhibition (BV-2 [1]) | Activity (PC-12 [17]) | also measured
1 | 2.96 | CC(=O)OC[C@@]1(C)[C@H]2CCC(C)=C(C[C@H](OC(C)=O)C3=CCOC3=O)[C@]2(C)CC[C@H]1OC(C)=O | Active | Active | Non-Toxic | – | – | inhibition at 20 µM (BV-2 [1]): 95.7%; inhibition (BV-2 [3]): Dose-dependent effect; Activity (BV-2 [4]): Active; Activity (BV-2 [5]): Active; Activity (BV-2 [6]): Dose-dependent effect; Activity (BV-2 [7]): Dose-dependent effect; Activity (PC-12 [10]): inactive; inhibition at 1 µM (BV-2 [12]): 34.4%; Activity (BV-2 [13]): Active; Activity (BV-2 [14]): inactive; Activity (BV-2 [15]): Active; Activity (PC-12 [16]): Toxic
2 | 2.54 | C=C1CC[C@@H]2[C@](C)(CO)[C@H](O)CC[C@@]2(C)[C@@H]1CCC1C(=O)OC[C@H]1O (stereo partly specified) | inactive | inactive | Non-Toxic | inactive | inactive | –
3 | – | C=C1CC[C@@H]2[C@](C)(CO)[C@H](O)CC[C@@]2(C)[C@@H]1/C=C/C1=CCOC1=O | inactive | inactive | Non-Toxic | inactive | <=16.1% | logP [2]: 3.23; Activity (PC-12 [18]): Dose-dependent effect; Activity (PC-12 [19]): Active; Activity (PC-12 [20]): 18.6%
4 | 3.71 | C=C1CC[C@@H]2[C@](C)(COC(C)=O)[C@H](OC(C)=O)CC[C@@]2(C)[C@@H]1CCC1C(=O)OC[C@H]1OC(C)=O (stereo partly specified) | inactive | inactive | Non-Toxic | Active | inactive | –
5 | 4.02 | C=C1CC[C@@H]2[C@](C)(COC(C)=O)[C@H](OC(C)=O)CC[C@@]2(C)[C@@H]1CCC1=CCOC1=O | inactive | inactive | Non-Toxic | Active | inactive | –
6 | 3.28 | C=C1CC[C@@H]2[C@](C)(CO)[C@H](O)CC[C@@]2(C)[C@@H]1C/C=C1\C=COC1=O | inactive | inactive | Non-Toxic | inactive | inactive | –
7 | 2.9 | CC1=C(CCC2=CCOC2=O)[C@]2(C)CC[C@@H](O)[C@@](C)(CO)[C@H]2CC1 | inactive | inactive | Non-Toxic | inactive | Active | Activity (PC-12 [18]): Dose-dependent effect; Activity (PC-12 [19]): Active; Activity (PC-12 [20]): 31.2%
8 | 3.07 | C=C1CC[C@@H]2[C@](C)(CO[C@@H]3O[C@H](CO)[C@@H](O)[C@H](O)[C@H]3O)CCC[C@@]2(C)[C@@H]1CCC1=CCOC1=O [NEOANDROGRAPHOLIDE] | inactive | inactive | Non-Toxic | inactive | – | Activity (PC-12 [18]): Dose-dependent effect; Activity (PC-12 [19]): Active; Activity (PC-12 [20]): 21.5%
9 | 3.83 | C=C1CC[C@@H]2[C@](C)(COC(C)=O)[C@H](OC(C)=O)CC[C@@]2(C)[C@@H]1/C=C/C1=CCOC1=O | inactive | inactive | Non-Toxic | Active | inactive | –
10 | 2.16 | C[C@@]1(CO)[C@H](O)CC[C@@]2(C)C3CC(C4=CCOC4=O)O[C@]3(C)CC[C@H]12 (stereo partly specified) | Active | Active | Non-Toxic | inactive | inactive | Activity (PC-12 [21]): Active; Activity (PC-12 [22]): Active
11 | – | C=C1CC[C@@H]2[C@](C)(CO)[C@H](O)CC[C@@]2(C)[C@@H]1C/C=C1/C(=O)OC[C@H]1O [ANDROGRAPHOLIDE] | – | – | – | – | Active | inhibition at 20 µM (BV-2 [1]): 76.7%
12 | 3.87 | C=C1CC[C@@H]2[C@](C)(COC(C)=O)[C@H](OC(C)=O)CC[C@@]2(C)[C@@H]1C/C=C1\C=COC1=O | inactive | inactive | Non-Toxic | – | inactive | inhibition at 20 µM (BV-2 [1]): 78%; inhibition (BV-2 [3]): Dose-dependent effect; Activity (BV-2 [4]): Active; Activity (BV-2 [5]): Active; Activity (BV-2 [6]): Dose-dependent effect; Activity (BV-2 [7]): Dose-dependent effect; Activity (BV-2 [13]): Active; Activity (BV-2 [14]): inactive
13 | 3.43 | C=C1CC[C@@H]2[C@](C)(CO)[C@H](O)CC[C@@]2(C)[C@@H]1CCC1=CCOC1=O [DEOXYANDROGRAPHOLIDE] | inactive | inactive | Non-Toxic | inactive | inactive | –
